Values quoted from earlier work in paper PMC3582496 (PLoS Biology, 2013).

Columns and labels:
CN [1] = tested on: CN
CN [2] = tested on: CN; remark: listed apart in the source

Compound	effect on rate of pNpp hydrolysis (CN [1])	Km (CN [2]) [µM]	Vmax (CN [2]) [µmol/min/mg]
C=CC[C@@H]1/C=C(\C)C[C@H](C)C[C@H](OC)[C@H]2O[C@@](O)(C(=O)C(=O)N3CCCC[C@H]3C(=O)O[C@H](/C(C)=C/[C@@H]3CC[C@@H](O)[C@H](OC)C3)[C@H](C)[C@@H](O)CC1=O)[C@H](C)C[C@@H]2OC [FK506]	rate increases	–	–
DLDVPIPGRFDRRVpSVCAE [RII phosphopeptide]	–	26	1.7
cyclosporin A [CSA]	rate increases	–	–
